Target: T1, deoxyribose dehydrogenase (iorAB-like dehydrogenase) (Pseudomonas simiae, UniProt A0A1N7UDX6)
T1 construct: gene PS417_10885; each subunit His-tagged (pET32a) in E. coli BL21(DE3), bands at 80 kDa (10885) and 17 kDa (10890); not purified, two clarified lysates mixed; native cytochrome c PS417_10880 not included; with Isoquinoline 1-oxidoreductase subunit alpha-like (deoxyribose dehydrogenase small subunit)
T1 sequence (A0A1N7UDX6 2-739): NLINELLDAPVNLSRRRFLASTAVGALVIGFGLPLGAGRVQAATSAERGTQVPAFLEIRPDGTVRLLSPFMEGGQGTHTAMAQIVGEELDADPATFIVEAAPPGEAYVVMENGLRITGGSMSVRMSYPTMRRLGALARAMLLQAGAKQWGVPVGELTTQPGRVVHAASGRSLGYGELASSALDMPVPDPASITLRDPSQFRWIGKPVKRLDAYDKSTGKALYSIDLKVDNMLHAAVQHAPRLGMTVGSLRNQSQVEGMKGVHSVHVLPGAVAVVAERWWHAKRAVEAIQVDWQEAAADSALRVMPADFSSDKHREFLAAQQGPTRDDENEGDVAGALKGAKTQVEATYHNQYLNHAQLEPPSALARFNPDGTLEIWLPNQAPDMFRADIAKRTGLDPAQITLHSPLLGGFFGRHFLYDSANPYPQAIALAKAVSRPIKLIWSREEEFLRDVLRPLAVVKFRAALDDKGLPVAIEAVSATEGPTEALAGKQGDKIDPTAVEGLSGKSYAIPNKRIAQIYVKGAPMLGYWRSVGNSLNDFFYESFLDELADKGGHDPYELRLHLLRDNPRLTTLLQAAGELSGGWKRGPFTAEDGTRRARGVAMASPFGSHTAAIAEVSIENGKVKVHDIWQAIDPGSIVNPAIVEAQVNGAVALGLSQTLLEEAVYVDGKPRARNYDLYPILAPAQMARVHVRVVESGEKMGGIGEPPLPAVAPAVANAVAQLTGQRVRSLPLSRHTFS
T1 sequence (A0A1N7UJP4 1-151 partner): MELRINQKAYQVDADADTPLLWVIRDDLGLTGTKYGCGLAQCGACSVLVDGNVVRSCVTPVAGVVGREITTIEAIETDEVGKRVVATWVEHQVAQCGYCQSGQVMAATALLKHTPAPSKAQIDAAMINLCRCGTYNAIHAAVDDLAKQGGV
Experiment: LC-MS/MS detection of deoxyribonate product, mixed E. coli lysates against empty-vector lysate
Format: biochemical
Settings: 1 mM deoxyribose, 100 uM phenazine methosulfate as electron acceptor, 100 mM NH4HCO3, room temperature, 1 h, with or without lactonase

Structure (SMILES) | LC-MS/MS detection of deoxyribonate product, mixed E. coli lysates against empty (may form through spontaneous or lysate hydrolysis of deoxyribono) | LC-MS/MS detection of deoxyribonate product, mixed E. coli lysates against empty
O=C(O)C[C@H](O)[C@H](O)CO [2-deoxy-D-ribonate] | this product had a fragmentation pattern very similar to that of a 2-deoxy-D-ribonate standard | –
OC[C@H]1OC(O)C[C@@H]1O (stereo partly drawn) [2-deoxy-D-ribose] | – | The iorAB-like dehydrogenase converted deoxyribose to a compound with the same mass-to-charge ratio
